Test results published in ChEMBL document CHEMBL6127119 (J Med Chem, 2024).
≈ marks a conversion by molar mass, not a printed value.

Key:
Type in all cases: functional
Conditions in all cases: time 16-24 hrs
[1] = tested on: Enterococcus faecium; assay: Antibacterial activity against vancomycin-resistant Enterococcus faecium harboring VanA phenotype incubated for 16 to 24 hrs by CLSI based broth microdilution method
[2] = tested on: Acinetobacter baumannii; assay: Antibacterial activity against Carbapenem-resistant Acinetobacter baumannii clinical isolate incubated for 16 to 24 hrs by CLSI based broth microdilution method
[3] = tested on: Staphylococcus aureus; assay: Antibacterial activity against vancomycin-intermediate Staphylococcus aureus incubated for 16 to 24 hrs by CLSI based broth microdilution method
[4] = tested on: Escherichia coli; assay: Antibacterial activity against Escherichia coli AB1157 incubated for 16 to 24 hrs by CLSI based broth microdilution method
[5] = tested on: Enterococcus faecium; assay: Antibacterial activity against vancomycin-resistant Enterococcus faecium harboring VanM phenotype incubated for 16 to 24 hrs by CLSI based broth microdilution method
[6] = tested on: Pseudomonas aeruginosa; assay: Antibacterial activity against Pseudomonas aeruginosa PAO1 incubated for 16 to 24 hrs by CLSI based broth microdilution method
[7] = tested on: Klebsiella pneumoniae; assay: Antibacterial activity against Klebsiella pneumoniae clinical isolate incubated for 16 to 24 hrs by CLSI based broth microdilution method
[8] = tested on: Staphylococcus aureus; assay: Antibacterial activity against methicillin-susceptible Staphylococcus aureus incubated for 16 to 24 hrs by CLSI based broth microdilution method
[9] = tested on: Enterococcus faecium; assay: Antibacterial activity against vancomycin-resistant Enterococcus faecium harboring VanB phenotype incubated for 16 to 24 hrs by CLSI based broth microdilution method

Structure (SMILES) | MIC [1] [µg/mL] | MIC [2] [µg/mL] | MIC [3] [µg/mL] | MIC [4] [µg/mL] | MIC [5] [µg/mL] | MIC [6] [µg/mL] | MIC [7] [µg/mL] | MIC [8] [µg/mL] | MIC [9] [µg/mL]
CC(C)C[C@@H](N)C(=O)N[C@H]1C(=O)N[C@@H](CC(N)=O)C(=O)N[C@H]2C(=O)N[C@H]3C(=O)N[C@H](C(=O)N[C@H](C(=O)O)c4cc(O)c(CNCCCCCCCCN)c(O)c4-c4cc3ccc4O)[C@H](O)c3ccc(c(Cl)c3)Oc3cc2cc(c3O[C@@H]2O[C@H](CO)[C@@H](O)[C@H](O)[C@H]2O[C@H]2C[C@](C)(N)[C@H](O)[C@H](C)O2)Oc2ccc(cc2Cl)[C@H]1O | 128 (≈ 80.4 µM) | 128 (≈ 80.4 µM) | 4 (≈ 2.51 µM) | 128 (≈ 80.4 µM) | 128 (≈ 80.4 µM) | 128 (≈ 80.4 µM) | > 128 | 4 (≈ 2.51 µM) | 64 (≈ 40.2 µM)
CN[C@H](CC(C)C)C(=O)N[C@H]1C(=O)N[C@@H](CC(N)=O)C(=O)N[C@H]2C(=O)N[C@H]3C(=O)N[C@H](C(=O)N[C@H](C(=O)N[C@H](CCCNC(=N)N)C(N)=O)c4cc(O)cc(O)c4-c4cc3ccc4O)[C@H](O)c3ccc(c(Cl)c3)Oc3cc2cc(c3O[C@@H]2O[C@H](CO)[C@@H](O)[C@H](O)[C@H]2O[C@H]2C[C@](C)(N)[C@H](O)[C@H](C)O2)Oc2ccc(cc2Cl)[C@H]1O | 8 (≈ 4.99 µM) | 32 (≈ 19.9 µM) | 1 (≈ 0.623 µM) | 8 (≈ 4.99 µM) | 32 (≈ 19.9 µM) | > 128 | 128 (≈ 79.8 µM) | 0.5 (≈ 0.312 µM) | 16 (≈ 9.97 µM)
CC(C)C[C@@H](N)C(=O)N[C@H]1C(=O)N[C@@H](CC(N)=O)C(=O)N[C@H]2C(=O)N[C@H]3C(=O)N[C@H](C(=O)N[C@H](C(=O)NCCCCN)c4cc(O)cc(O)c4-c4cc3ccc4O)[C@H](O)c3ccc(c(Cl)c3)Oc3cc2cc(c3O[C@@H]2O[C@H](CO)[C@@H](O)[C@H](O)[C@H]2O[C@H]2C[C@](C)(N)[C@H](O)[C@H](C)O2)Oc2ccc(cc2Cl)[C@H]1O | 64 (≈ 42.5 µM) | > 128 | 8 (≈ 5.31 µM) | 32 (≈ 21.3 µM) | 128 (≈ 85 µM) | > 128 | > 128 | 0.5 (≈ 0.332 µM) | 128 (≈ 85 µM)
CN[C@H](CC(C)C)C(=O)N[C@H]1C(=O)N[C@@H](CC(N)=O)C(=O)N[C@H]2C(=O)N[C@H]3C(=O)N[C@H](C(=O)N[C@H](C(=O)O)c4cc(O)c(CNCCCCCCCCN)c(O)c4-c4cc3ccc4O)[C@H](O)c3ccc(c(Cl)c3)Oc3cc2cc(c3O[C@@H]2O[C@H](CO)[C@@H](O)[C@H](O)[C@H]2O[C@H]2C[C@](C)(N)[C@H](O)[C@H](C)O2)Oc2ccc(cc2Cl)[C@H]1O | 128 (≈ 79.7 µM) | 128 (≈ 79.7 µM) | 8 (≈ 4.98 µM) | 128 (≈ 79.7 µM) | 128 (≈ 79.7 µM) | 128 (≈ 79.7 µM) | > 128 | 4 (≈ 2.49 µM) | 32 (≈ 19.9 µM)
CC(C)C[C@@H](N)C(=O)N[C@H]1C(=O)N[C@@H](CC(N)=O)C(=O)N[C@H]2C(=O)N[C@H]3C(=O)N[C@H](C(=O)N[C@H](C(=O)NCCCCNC(=N)N)c4cc(O)cc(O)c4-c4cc3ccc4O)[C@H](O)c3ccc(c(Cl)c3)Oc3cc2cc(c3O[C@@H]2O[C@H](CO)[C@@H](O)[C@H](O)[C@H]2O[C@H]2C[C@](C)(N)[C@H](O)[C@H](C)O2)Oc2ccc(cc2Cl)[C@H]1O | 32 (≈ 20.7 µM) | 128 (≈ 82.7 µM) | 2 (≈ 1.29 µM) | 8 (≈ 5.17 µM) | 64 (≈ 41.4 µM) | 128 (≈ 82.7 µM) | > 128 | 1 (≈ 0.646 µM) | 32 (≈ 20.7 µM)
CC(C)C[C@@H](N)C(=O)N[C@H]1C(=O)N[C@@H](CC(N)=O)C(=O)N[C@H]2C(=O)N[C@H]3C(=O)N[C@H](C(=O)N[C@H](C(=O)NCCOCCOCCNC(=N)N)c4cc(O)cc(O)c4-c4cc3ccc4O)[C@H](O)c3ccc(c(Cl)c3)Oc3cc2cc(c3O[C@@H]2O[C@H](CO)[C@@H](O)[C@H](O)[C@H]2O[C@H]2C[C@](C)(N)[C@H](O)[C@H](C)O2)Oc2ccc(cc2Cl)[C@H]1O | 32 (≈ 19.9 µM) | > 128 | 4 (≈ 2.49 µM) | 16 (≈ 9.95 µM) | 64 (≈ 39.8 µM) | > 128 | > 128 | 1 (≈ 0.622 µM) | 64 (≈ 39.8 µM)
CC(C)C[C@@H](N)C(=O)N[C@H]1C(=O)N[C@@H](CC(N)=O)C(=O)N[C@H]2C(=O)N[C@H]3C(=O)N[C@H](C(=O)N[C@H](C(=O)N[C@H](CCCNC(=N)N)C(N)=O)c4cc(O)cc(O)c4-c4cc3ccc4O)[C@H](O)c3ccc(c(Cl)c3)Oc3cc2cc(c3O[C@@H]2O[C@H](CO)[C@@H](O)[C@H](O)[C@H]2O[C@H]2C[C@](C)(N)[C@H](O)[C@H](C)O2)Oc2ccc(cc2Cl)[C@H]1O | 32 (≈ 20.1 µM) | 64 (≈ 40.2 µM) | 16 (≈ 10.1 µM) | 16 (≈ 10.1 µM) | 64 (≈ 40.2 µM) | 128 (≈ 80.5 µM) | > 128 | 0.5 (≈ 0.314 µM) | 32 (≈ 20.1 µM)
CC(C)C[C@@H](N)C(=O)N[C@H]1C(=O)N[C@@H](CC(N)=O)C(=O)N[C@H]2C(=O)N[C@H]3C(=O)N[C@H](C(=O)N[C@H](C(=O)NCCNC(=N)N)c4cc(O)cc(O)c4-c4cc3ccc4O)[C@H](O)c3ccc(c(Cl)c3)Oc3cc2cc(c3O[C@@H]2O[C@H](CO)[C@@H](O)[C@H](O)[C@H]2O[C@H]2C[C@](C)(N)[C@H](O)[C@H](C)O2)Oc2ccc(cc2Cl)[C@H]1O | 32 (≈ 21.1 µM) | 128 (≈ 84.2 µM) | 2 (≈ 1.32 µM) | 32 (≈ 21.1 µM) | 32 (≈ 21.1 µM) | > 128 | > 128 | 0.5 (≈ 0.329 µM) | 128 (≈ 84.2 µM)
CC(C)C[C@@H](N)C(=O)N[C@H]1C(=O)N[C@@H](CC(N)=O)C(=O)N[C@H]2C(=O)N[C@H]3C(=O)N[C@H](C(=O)N[C@H](C(=O)NCc4ccc(-c5ccccc5CN)cc4)c4cc(O)cc(O)c4-c4cc3ccc4O)[C@H](O)c3ccc(c(Cl)c3)Oc3cc2cc(c3O[C@@H]2O[C@H](CO)[C@@H](O)[C@H](O)[C@H]2O[C@H]2C[C@](C)(N)[C@H](O)[C@H](C)O2)Oc2ccc(cc2Cl)[C@H]1O | 8 (≈ 4.91 µM) | 16 (≈ 9.82 µM) | 0.5 (≈ 0.307 µM) | 8 (≈ 4.91 µM) | 4 (≈ 2.45 µM) | 32 (≈ 19.6 µM) | > 128 | 0.25 (≈ 0.153 µM) | 4 (≈ 2.45 µM)
CC(C)C[C@@H](N)C(=O)N[C@H]1C(=O)N[C@@H](CC(N)=O)C(=O)N[C@H]2C(=O)N[C@H]3C(=O)N[C@H](C(=O)N[C@H](C(=O)NCCCCCCCCNC(=N)N)c4cc(O)cc(O)c4-c4cc3ccc4O)[C@H](O)c3ccc(c(Cl)c3)Oc3cc2cc(c3O[C@@H]2O[C@H](CO)[C@@H](O)[C@H](O)[C@H]2O[C@H]2C[C@](C)(N)[C@H](O)[C@H](C)O2)Oc2ccc(cc2Cl)[C@H]1O | 16 (≈ 9.98 µM) | 64 (≈ 39.9 µM) | 2 (≈ 1.25 µM) | 8 (≈ 4.99 µM) | 32 (≈ 20 µM) | 128 (≈ 79.8 µM) | > 128 | 0.5 (≈ 0.312 µM) | 8 (≈ 4.99 µM)
CN[C@H](CC(C)C)C(=O)N[C@H]1C(=O)N[C@@H](CC(N)=O)C(=O)N[C@H]2C(=O)N[C@H]3C(=O)N[C@H](C(=O)N[C@H](C(=O)O)c4cc(O)c(CNCCCCCCCCNC(=N)N)c(O)c4-c4cc3ccc4O)[C@H](O)c3ccc(c(Cl)c3)Oc3cc2cc(c3O[C@@H]2O[C@H](CO)[C@@H](O)[C@H](O)[C@H]2O[C@H]2C[C@](C)(N)[C@H](O)[C@H](C)O2)Oc2ccc(cc2Cl)[C@H]1O | 64 (≈ 38.8 µM) | 128 (≈ 77.7 µM) | 2 (≈ 1.21 µM) | 32 (≈ 19.4 µM) | 32 (≈ 19.4 µM) | 128 (≈ 77.7 µM) | > 128 | 1 (≈ 0.607 µM) | 128 (≈ 77.7 µM)
CC(C)C[C@@H](N)C(=O)N[C@H]1C(=O)N[C@@H](CC(N)=O)C(=O)N[C@H]2C(=O)N[C@H]3C(=O)N[C@H](C(=O)N[C@H](C(=O)NCc4ccc(-c5ccc(CN)cc5)cc4)c4cc(O)cc(O)c4-c4cc3ccc4O)[C@H](O)c3ccc(c(Cl)c3)Oc3cc2cc(c3O[C@@H]2O[C@H](CO)[C@@H](O)[C@H](O)[C@H]2O[C@H]2C[C@](C)(N)[C@H](O)[C@H](C)O2)Oc2ccc(cc2Cl)[C@H]1O | 8 (≈ 4.91 µM) | 128 (≈ 78.6 µM) | 1 (≈ 0.614 µM) | 16 (≈ 9.82 µM) | 8 (≈ 4.91 µM) | > 128 | > 128 | ≤ 0.063 | 8 (≈ 4.91 µM)
